Source: US12669505B2, “Detection of desmoglein-2 in cancers of epithelial origin” (HDT Bio Corp., priority 2019, dated 2026)

System: ovarian cancer cell lines (OV-CAR)
Test: Western blot of DSG2 in OV-CAR cell supernatants after cisplatin treatment
Type: cell-based
Description: FIGS. 5A, 5B and 5C (collectively FIGS. 5A-5C) show the effect of DSG2 expression in response to cisplatin.
Western Blot. Mini-PROTEAN precast gels (BIO-RAD, Hercules, CA) with 4-15% gradient polyacrylamide are used. A total of 1 μg protein mixed with 2× loading buffer (10 mM Tris-HCl, pH 6.8, 200 mM DTT, 4% SDS, 20% glycerol, 0.2% bromophenol blue) is loaded per lane. Samples are either boiled (B) for 5 min or loaded unboiled (UB). The following running buffer is used: 25 mM Tris, pH 8.3, 0.192 M glycine, 0.1% SDS. After electrophoresis, proteins are transferred to nitrocellulose and incubated with the corresponding antibodies. For detection of DSG2 binding, filters are incubated with recombinant human DSG2 protein and anti-DSG2 antibody 6D8 as described (Wang et al. Nat Med. 2011; 17(1):96-104). Other Western blots use a primary mouse monoclonal antibody followed by an anti-mouse IgG HRP conjugate. Selected Western blots are scanned and quantified using the ImageJ 1.32 software (National Institutes of Health, Bethesda, MD).
In this Example, a potential mode of chemoresistance was investigated, DSG2 protein levels were determined in cancer cells after treatment with cisplatin, a commonly used platinum-based therapeutic used as first-line treatment of ovarian cancer and its metastases.
Cell supernatants from ovarian cancer cell lines (OV-CAR) were first interrogated with monoclonal and polyclonal anti-DSG2 antibodies to confirm specificity of the antibodies. […] Within 2 days of cisplatin treatment, the presence of cleaved DSG2, a product of DSG2 shedding, was detected in cell supernatant (FIGS. 5A and 5B). Quantitative analysis of the blot intensity indicated DSG2 peaking at 2 days after cisplatin treatment.

N.N.[Cl][Pt][Cl] [cisplatin]
time of DSG2 peak by quantitative analysis of blot intensity (OV-CAR cells, after cisplatin treatment, ImageJ, day 0 as control): 2 days | time until cleaved DSG2 (product of DSG2 shedding) was detected in cell supernatant (OV-CAR cells, after cisplatin treatment, Western blot): ≤ 2 days | DSG2 response of ovarian cancer cells to treatment (cisplatin treatment): upregulated and shed in increased amounts
